The numbers were not newly measured in patent US20130281394A1, “Chemosensory Receptor Ligand-Based Therapies” (ELCELYX THERAPEUTICS, INC., priority 2010, published 2013), which cites them from elsewhere.

Like-named read-outs stand apart in the source and are kept apart here.

One series relates to gut hormones. Particulars: humans.
A further series concerns the target T1, sweet receptor (Homo sapiens, UniProt Q7RTX0+Q8TE23).
T1 sequence (Q8TE23 20-839): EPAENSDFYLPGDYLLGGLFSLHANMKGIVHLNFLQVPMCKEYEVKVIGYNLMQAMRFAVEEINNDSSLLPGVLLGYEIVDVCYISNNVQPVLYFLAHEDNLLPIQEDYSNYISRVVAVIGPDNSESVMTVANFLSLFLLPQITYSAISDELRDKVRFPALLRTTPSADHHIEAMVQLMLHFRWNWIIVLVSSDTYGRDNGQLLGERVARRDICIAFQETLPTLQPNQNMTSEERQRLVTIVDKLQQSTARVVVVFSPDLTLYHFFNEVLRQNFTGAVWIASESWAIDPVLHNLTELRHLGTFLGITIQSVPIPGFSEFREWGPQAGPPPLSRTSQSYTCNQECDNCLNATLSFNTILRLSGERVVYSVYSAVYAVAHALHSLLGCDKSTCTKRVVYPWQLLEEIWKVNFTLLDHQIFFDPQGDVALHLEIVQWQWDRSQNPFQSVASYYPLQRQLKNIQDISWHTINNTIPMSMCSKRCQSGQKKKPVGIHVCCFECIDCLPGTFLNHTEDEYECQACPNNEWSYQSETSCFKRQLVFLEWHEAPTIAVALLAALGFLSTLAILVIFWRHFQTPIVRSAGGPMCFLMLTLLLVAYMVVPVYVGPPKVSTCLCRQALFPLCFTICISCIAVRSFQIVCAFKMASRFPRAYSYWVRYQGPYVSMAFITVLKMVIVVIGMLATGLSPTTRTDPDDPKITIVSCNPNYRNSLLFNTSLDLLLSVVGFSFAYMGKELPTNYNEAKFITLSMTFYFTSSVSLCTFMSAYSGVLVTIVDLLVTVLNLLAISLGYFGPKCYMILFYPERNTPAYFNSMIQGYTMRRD
T1 sequence (Q7RTX0 21-852): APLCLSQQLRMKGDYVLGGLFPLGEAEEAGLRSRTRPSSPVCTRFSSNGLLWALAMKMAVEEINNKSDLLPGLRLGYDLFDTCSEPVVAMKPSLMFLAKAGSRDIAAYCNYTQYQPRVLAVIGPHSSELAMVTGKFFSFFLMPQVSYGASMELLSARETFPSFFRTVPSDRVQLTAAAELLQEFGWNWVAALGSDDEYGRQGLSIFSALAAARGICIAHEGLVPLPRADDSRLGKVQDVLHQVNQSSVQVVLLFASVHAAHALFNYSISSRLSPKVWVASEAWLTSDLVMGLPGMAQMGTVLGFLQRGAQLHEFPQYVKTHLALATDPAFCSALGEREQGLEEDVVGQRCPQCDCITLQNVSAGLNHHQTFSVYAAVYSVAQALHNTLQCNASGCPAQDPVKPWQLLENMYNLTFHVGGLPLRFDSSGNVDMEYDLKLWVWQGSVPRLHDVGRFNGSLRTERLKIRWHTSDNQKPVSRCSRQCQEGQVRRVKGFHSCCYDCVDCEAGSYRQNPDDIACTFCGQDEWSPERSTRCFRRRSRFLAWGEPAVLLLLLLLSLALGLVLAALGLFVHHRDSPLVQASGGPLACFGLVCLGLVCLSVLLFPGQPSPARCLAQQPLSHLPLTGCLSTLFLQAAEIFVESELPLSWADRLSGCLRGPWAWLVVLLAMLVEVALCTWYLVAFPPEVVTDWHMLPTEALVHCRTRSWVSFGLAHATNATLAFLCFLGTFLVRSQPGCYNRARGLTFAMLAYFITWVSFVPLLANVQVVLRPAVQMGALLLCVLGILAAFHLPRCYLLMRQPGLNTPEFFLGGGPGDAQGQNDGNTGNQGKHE
Particulars: relative sweetness on a weight comparison basis to sucrose (= 1.0); ranges: varied with the concentration of sucrose.

The conditions of series [1]: rats.
Series [2] has as its system GLP-1. The following applies: rats, with a DPP-IV inhibitor.
Series [3] has as its system GLP-1. Particulars: humans.
The subject of series [4] is gut hormone release. Particulars: instillation into the duodenum of humans.
Series [5] deals with gut hormone release. Particulars: rats.
The conditions of series [6]: patients with jejunostomy.
For series [7] the following is noted: in vivo.

`O=c1c(-c2ccc(O)cc2)coc2cc(O)cc(O)c12` [Genistein]: the Taste quality entry with bitter receptor is listed as “Bitter or astringent”.

Consider `O=c1c(-c2ccc(O)cc2)coc2cc(O[C@@H]3O[C@H](CO)[C@@H](O)[C@H](O)[C@H]3O)cc(O)c12` [Genistin], for which the Taste quality entry in the series on bitter receptor is given as “Astringent”.

For the compound `O=S(=O)(O)ON=C(Cc1c[nH]c2ccccc12)S[C@@H]1O[C@H](CO)[C@@H](O)[C@H](O)[C@H]1O` [Glucobrassicin], the Taste quality entry in the series with bitter receptor was “Bitter”.

As to `C=CC1CNC(=S)O1` (stereo not shown) [Goitrin 5-vinyl-2-oxazolidine thione, 5-vinyl-2-oxazolidine thione], the Taste quality entry in the series with bitter receptor is listed as “Bitter”.

As for `CC1(C)O[C@H]2CC(=O)OC[C@]23[C@H]2CC[C@@](C)([C@@H](O[C@@H]4O[C@H](CO)[C@@H](O)[C@H](O)[C@H]4O)c4ccoc4)[C@@]4(O[C@@H]4C(=O)O)[C@]2(C)C(=O)C[C@@H]13` [Limonin glucoside], in the series with bitter receptor, the Taste quality result was “Tasteless”.

With `CC1(C)O[C@H]2CC(=O)OC[C@]23[C@H]2CC[C@@]4(C)[C@H](c5ccoc5)OC(=O)[C@H]5O[C@]54[C@]2(C)C(=O)C[C@@H]13` [Limonin], in the series on bitter receptor, the Taste quality entry was “Bitter”.

Turning to `C[C@@H]1O[C@@H](O[C@H]2[C@H](Oc3cc(O)c4c(c3)O[C@H](c3ccc(O)cc3)CC4=O)O[C@H](CO)[C@@H](O)[C@@H]2O)[C@H](O)[C@H](O)[C@H]1O` [Naringin], the Taste quality entry in the series on bitter receptor is recorded as “Bitter”.

With `COc1ccc(-c2cc(=O)c3c(OC)c(OC)c(OC)c(OC)c3o2)cc1OC` [Nobiletin], in the series on bitter receptor, the Taste quality result was “Bitter”.

Regarding `CC(=O)O[C@H]1CC(=O)OC(C)(C)[C@@H]2CC(=O)[C@]3(C)[C@H](CC[C@@]4(C)[C@H](c5ccoc5)OC(=O)[C@H]5O[C@]543)[C@@]12C` [Nomilin], the Taste quality entry in the series with bitter receptor is on record as “Bitter”.

As for `C=C[C@H](O)CC(=NOS(=O)(=O)O)S[C@@H]1O[C@H](CO)[C@@H](O)[C@H](O)[C@H]1O` [Progoitrin], in the series with bitter receptor, the Taste quality result is recorded as “Bitter”.

Regarding `O=c1c(O)c(-c2ccc(O)c(O)c2)oc2cc(O)cc(O)c12` [Quercetin], the Taste quality result in the series with bitter receptor is reported as “Bitter”.

`C=C1C[C@@]23CC[C@H]4[C@@](C)(CCC[C@@]4(C)C(=O)O[C@@H]4O[C@H](CO)[C@@H](O)[C@H](O)[C@H]4O)[C@@H]2CC[C@]1(O[C@@H]1O[C@H](CO)[C@@H](O)[C@H](O[C@@H]2O[C@H](CO)[C@@H](O)[C@H](O)[C@H]2O)[C@H]1O[C@@H]1O[C@H](CO)[C@@H](O)[C@H](O)[C@H]1O)C3` [Rebaudioside A]: in the series with gut hormones, the “alterations of gut hormones in the circulation” value was “no alterations”. In addition, the Sweetness/potency at sweet receptor is recorded as 242.

Turning to `COc1ccc(-c2cc(=O)c3c(OC)c(OC)c(OC)cc3o2)cc1OC` [Sinensetin], the Taste quality entry in the series on bitter receptor was “Bitter”.

Regarding `COc1ccc(-c2cc(=O)c3c(OC)c(OC)c(OC)c(OC)c3o2)cc1` [Tangeretin], in the series with bitter receptor, the Taste quality entry is recorded as “Bitter”.

On to `O=c1c(-c2ccc(O)cc2)coc2cc(O)ccc12` [daidzein], for which the Taste quality entry in the series on bitter receptor is “Bitter or astringent”.

As for `N[C@@H](CCC(=O)O)C(=O)O` [glutamate], in [1], the abdominal fat result is “reduced” and the weight gain entry is “decreased”.

In the case of `OCCN1C[C@H](O)[C@@H](O)[C@H](O)[C@H]1CO` [miglitol], the “increase in GLP-1” value in the series on GLP-1 [2] is listed as “synergistic”. The “post-prandial GLP-1 levels” value in the series with GLP-1 [3] is “increase”.

Regarding `OC[C@H]1O[C@H](O[C@]2(CCl)O[C@H](CCl)[C@@H](O)[C@@H]2O)[C@H](O)[C@@H](O)[C@H]1Cl` [sucralose], the gut hormone release result with gut hormone release [4] and with gut hormone release [5] was “no effect” in each case.

Regarding “GLP-2: gut hormone administered to patients with jejunostomy (HADGSFSDEMNTILDNLAARDFINWLIQTKITD; Glucagon-like peptide 2; UniProt P01275 146-178, looked up)”, in series [6], the “gastric emptying of solids and liquids” value is recorded as “prolong”; the “intestinal absorption of energy and intestinal wet weight absorption” value is on record as “improve”.

As for glucagon-like peptide-1 [GLP-1], in [7], the “portal:arterial gradient” value is reported as > 2:1.
